For data set [1], the system named is kras^G12D; mycOE; p53^−/− murine pancreatic cancer cells (KMP53). Kind of data set: KMP53 cell assay (XTT cell viability with Etoposide). The class given is cell-based. As to conditions: Mus musculus, 4 h pre-treatment, then 300 nM Etoposide, 46 h. The source says: (§1) A selection of compounds was screened in a cellular assay system in two different cancer cell lines. Therefore, the cells were challenged with a generally non-cytotoxic concentration of Etoposid to induce DNA double strand breaks and the activation of the ATM pathway. The cells were further treated with different concentrations of the final compounds and viability of the cells was quantified using a standard XTT cell viability protocol. The principle of this assay lies in the fact that only alive and thus metabolically active cells are able to catalyze the reduction of XTT ((2,3-bis-(2-methoxy-4-nitro-5-sulfophenyl)-2H-tetrazolium-5-carboxanilide) by NADH from mitochondria, into formazan. The formazan product can be then detected using an absorbance-based microplate reader. The absorbance intensity measured in each well correlates to cell viability.
(§2) In brief, kras^G12D; mycOE; p53^−/− murine pancreatic cancer cells (KMP53) and Panc-1 human pancreatic ductal carcinoma cells were seeded in 96-well plates and left to attach overnight. The following day, cells were treated with serial dilutions of compound or DMSO in triplicates. The cells were first pre-treated for 4 hours with inhibitor and then 300 nM of Etoposide was added to each well. Cells were then grown under normal conditions (37° C., 95% air, 5% CO2) for 46 h. Following the incubation period, XTT solution was added to the cells containing 1 mg/ml XTT and 25 μM phenazine methosulfate (PMS) diluted in full culture medium. Cells were incubated in normal conditions for two more hours. For the determination of cell viability, absorbance at 450 nm was measured for each well. Absorbance values were then normalized to DMSO control and expressed as percentages of viability. Using software GraphPad Prism, the values were fitted in a nonlinear response curve and the IC50 values were calculated.
(In general: Tetrazolium assays rely on reduction of a dye to a coloured formazan, in cell work by metabolically active cells.)

For another data set, the target named is human ATM (Homo sapiens (Human), UniProt Q13315). The experiment in a line: Enzymatic ATM assay (RBC FRET enzyme assay). The class given is biochemical. As to conditions: substrate p53, 5-point dilution starting at 10 μM. On the procedure:
The inhibitory activity on the isolated ATM kinase was determined by a commercial supplier (Reaction Biology Corp., PA, US) using an activity based FRET assay. Compounds were therefore first pre-incubated with human ATM before substrate (p53) and ATP were added to initiate the phosphorylation reaction. After a given time, the kinase reaction was stopped and the amount of phosphorylated substrate was quantified using standard FRET detection methods. […] Detailed assay conditions and parameters can be requested from the commercial supplier.

In data set [2] the test system is Panc-1 human pancreatic ductal carcinoma cells. The experiment in a line: Panc1 cell assay (XTT cell viability with Etoposide). The following applies: 4 h pre-treatment, then 300 nM Etoposide, 46 h. The class given is cell-based.
Description: as §1, §2

The next data set is described as follows: Solubility in DMSO. The class given is physicochemical. As to conditions: organic solvent or mixture, free base. How it is done:
In a screw-top reaction vial, 41 mg (25) (0.1 mmol) and 1 mg tBu3P Pd G3 (1.5 mol %) were suspended in 2.4 ml degassed dioxane under argon atmosphere. Subsequently were added 40 mg (27) (0.14 mmol) as solution in dioxane and 0.6 ml of an aqueous 0.5M K3PO4 solution (0.3 mmol) via syringe. The reaction vial was sealed and heated to 50° C. heating block temperature for about 2 hours. TLC indicated complete conversion at that point and the reaction was quenched by dilution with EtOAc and brine. The phases were separated and the aqueous phase was further extracted with EtOAc (3×15 ml) and subsequently with DCM (4×15 ml). The combined extracts were washed with brine, dried and evaporated. The residue was purified via flash chromatography (DCM/MeOH+2N NH3 2-10%) to obtain 36 mg (74%) of the title substance as white solid. […] Therefore, it was converted to the HCl salt by dissolution in DCM/MeOH, acidification with HCl in EtOH and subsequent concentration of the solution. […]

Bounds are passed on as bounds.

Chain of human ATM (Q13315 whole entry): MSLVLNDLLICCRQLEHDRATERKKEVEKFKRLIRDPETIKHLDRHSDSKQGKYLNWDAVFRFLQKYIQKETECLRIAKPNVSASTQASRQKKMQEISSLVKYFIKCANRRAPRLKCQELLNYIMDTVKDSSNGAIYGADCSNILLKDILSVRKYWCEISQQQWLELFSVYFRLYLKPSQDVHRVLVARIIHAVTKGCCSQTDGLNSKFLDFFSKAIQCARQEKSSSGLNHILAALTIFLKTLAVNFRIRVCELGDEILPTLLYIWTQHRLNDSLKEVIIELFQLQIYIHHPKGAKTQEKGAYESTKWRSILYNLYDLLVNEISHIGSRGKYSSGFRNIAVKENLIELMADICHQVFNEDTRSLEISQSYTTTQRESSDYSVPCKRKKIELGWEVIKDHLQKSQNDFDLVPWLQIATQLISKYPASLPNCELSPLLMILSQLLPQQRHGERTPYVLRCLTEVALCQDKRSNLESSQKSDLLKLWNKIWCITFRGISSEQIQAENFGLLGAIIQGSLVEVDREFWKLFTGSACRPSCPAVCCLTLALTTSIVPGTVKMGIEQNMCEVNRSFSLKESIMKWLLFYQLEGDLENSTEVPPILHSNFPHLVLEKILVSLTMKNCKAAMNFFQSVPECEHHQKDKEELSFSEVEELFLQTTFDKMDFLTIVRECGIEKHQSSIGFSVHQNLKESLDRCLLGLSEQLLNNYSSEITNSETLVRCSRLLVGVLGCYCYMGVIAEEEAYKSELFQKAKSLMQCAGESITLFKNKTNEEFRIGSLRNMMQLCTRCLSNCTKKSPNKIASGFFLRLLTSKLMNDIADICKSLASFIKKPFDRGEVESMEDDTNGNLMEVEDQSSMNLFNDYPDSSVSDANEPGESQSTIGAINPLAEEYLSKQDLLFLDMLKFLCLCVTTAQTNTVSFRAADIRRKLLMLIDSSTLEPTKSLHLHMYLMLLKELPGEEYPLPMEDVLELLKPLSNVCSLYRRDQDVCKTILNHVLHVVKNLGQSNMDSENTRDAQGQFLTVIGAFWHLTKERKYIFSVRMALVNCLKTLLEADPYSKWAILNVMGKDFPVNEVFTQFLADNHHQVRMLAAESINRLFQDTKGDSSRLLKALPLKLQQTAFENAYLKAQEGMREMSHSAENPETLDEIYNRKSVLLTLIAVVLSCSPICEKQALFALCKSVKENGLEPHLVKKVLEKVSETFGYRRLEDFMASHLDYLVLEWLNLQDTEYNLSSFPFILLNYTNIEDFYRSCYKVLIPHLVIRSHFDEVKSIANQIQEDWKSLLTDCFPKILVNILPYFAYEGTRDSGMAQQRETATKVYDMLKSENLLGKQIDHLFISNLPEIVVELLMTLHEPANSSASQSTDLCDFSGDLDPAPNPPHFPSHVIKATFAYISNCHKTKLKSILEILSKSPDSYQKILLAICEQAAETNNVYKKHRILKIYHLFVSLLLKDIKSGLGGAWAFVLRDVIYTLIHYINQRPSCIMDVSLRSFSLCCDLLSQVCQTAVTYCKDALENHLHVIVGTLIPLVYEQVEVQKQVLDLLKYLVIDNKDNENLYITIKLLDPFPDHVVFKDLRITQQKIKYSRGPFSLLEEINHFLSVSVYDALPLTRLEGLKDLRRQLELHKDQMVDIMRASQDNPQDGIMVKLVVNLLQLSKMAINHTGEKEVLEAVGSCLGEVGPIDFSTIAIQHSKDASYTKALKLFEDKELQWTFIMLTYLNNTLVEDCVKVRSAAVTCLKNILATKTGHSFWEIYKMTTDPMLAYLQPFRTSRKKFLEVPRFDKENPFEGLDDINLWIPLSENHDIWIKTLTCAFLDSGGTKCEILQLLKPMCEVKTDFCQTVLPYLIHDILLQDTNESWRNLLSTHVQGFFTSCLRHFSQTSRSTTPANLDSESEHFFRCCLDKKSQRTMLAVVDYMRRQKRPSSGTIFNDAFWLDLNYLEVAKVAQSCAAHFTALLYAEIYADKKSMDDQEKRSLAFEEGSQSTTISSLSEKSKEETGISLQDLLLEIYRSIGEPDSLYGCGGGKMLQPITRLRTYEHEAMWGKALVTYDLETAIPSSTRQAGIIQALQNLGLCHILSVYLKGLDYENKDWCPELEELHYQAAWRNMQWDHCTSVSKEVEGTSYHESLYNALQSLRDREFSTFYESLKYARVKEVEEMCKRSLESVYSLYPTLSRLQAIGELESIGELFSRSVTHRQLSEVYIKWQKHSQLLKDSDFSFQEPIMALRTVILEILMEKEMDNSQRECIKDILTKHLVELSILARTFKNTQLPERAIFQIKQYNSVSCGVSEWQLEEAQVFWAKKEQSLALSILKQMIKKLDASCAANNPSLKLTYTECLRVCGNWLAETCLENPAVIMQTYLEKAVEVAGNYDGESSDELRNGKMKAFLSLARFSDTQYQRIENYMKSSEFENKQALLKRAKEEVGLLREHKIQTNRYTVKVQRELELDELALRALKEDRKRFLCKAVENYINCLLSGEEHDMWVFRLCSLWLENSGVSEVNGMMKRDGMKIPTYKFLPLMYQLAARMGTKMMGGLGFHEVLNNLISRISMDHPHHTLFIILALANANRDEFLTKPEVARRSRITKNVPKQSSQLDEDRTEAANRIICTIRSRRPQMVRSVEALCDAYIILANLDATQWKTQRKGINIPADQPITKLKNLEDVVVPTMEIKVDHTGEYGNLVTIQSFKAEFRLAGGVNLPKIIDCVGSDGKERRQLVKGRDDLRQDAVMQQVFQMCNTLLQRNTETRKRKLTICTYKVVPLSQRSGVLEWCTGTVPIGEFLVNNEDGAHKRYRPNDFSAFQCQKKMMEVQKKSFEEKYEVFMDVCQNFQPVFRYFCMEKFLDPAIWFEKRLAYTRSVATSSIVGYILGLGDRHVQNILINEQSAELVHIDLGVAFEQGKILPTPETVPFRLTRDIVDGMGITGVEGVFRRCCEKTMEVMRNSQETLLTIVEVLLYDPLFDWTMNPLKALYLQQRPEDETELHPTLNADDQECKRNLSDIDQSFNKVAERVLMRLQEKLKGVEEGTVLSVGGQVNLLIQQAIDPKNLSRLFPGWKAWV

With `COCCn1c(=O)n(C)c2cnc3ccc(-c4ccc(NC(=O)NC5CCN(C)C5)cc4)cc3c21` (stereo not drawn) [Ex. 19, 1-(4-(1-(2-Methoxyethyl)-3-methyl-2-oxo-2,3-dihydro-1H-imidazo[4,5-c]quinolin-8-yl)phenyl)-3-(1-methylpyrrolidin-3-yl)urea], the IC50 (in general, the concentration at which inhibition is half-maximal) in data set [1] was 9930 nM; at human ATM it was less than 1 nM; in data set [2], 9 nM.
Regarding `COCCn1c(=O)n(C)c2cnc3ccc(-c4ccc(NC(=O)NC5CCCN(C)C5)cc4)cc3c21` (stereo not drawn) [Ex. 17, 1-(4-(1-(2-Methoxyethyl)-3-methyl-2-oxo-2,3-dihydro-1H-imidazo[4,5-c]quinolin-8-yl)phenyl)-3-(1-methylpiperidin-3-yl)urea], the half-maximal inhibitory concentration (IC50) is less than 1 nM against human ATM and 4 nM in data set [2].
As to `CN(C)CCNC(=O)Nc1ccc(-c2ccc3ncc4c(c3c2)n(C2CCOCC2)c(=O)n4C)cn1` [Ex. 7, 1-(2-(Dimethylamino)ethyl)-3-(5-(3-methyl-2-oxo-1-(tetrahydro-2H-pyran-4-yl)-2,3-dihydro-H-imidazo[4,5-c]quinolin-8-yl)pyridin-2-yl)urea], the IC50 in data set [1] is 2500 nM; on human ATM, less than 1 nM. The solubility (as a rule, the concentration that dissolves in the medium under given conditions) in “Solubility in DMSO” is less than 10 mM.
Take `COCCn1c(=O)n(C)c2cnc3ccc(-c4ccc(NC(=O)NCCN5CC(F)C5)cc4)cc3c21` [Ex. 50, 1-(2-(3-Fluoroazetidin-1-yl)ethyl)-3-(4-(1-(2-methoxyethyl)-3-methyl-2-oxo-2,3-dihydro-1H-imidazo[4,5-c]quinolin-8-yl)phenyl)urea]: the IC50 is 8040 nM in data set [1] and less than 1 nM against human ATM.
Turning to `COCCn1c(=O)n(C)c2cnc3ccc(-c4ccc(NC(=O)NCCN(C)C)c(F)c4F)cc3c21` [Ex. 46, 1-(2,3-Difluoro-4-(1-(2-methoxyethyl)-3-methyl-2-oxo-2,3-dihydro-1H-imidazo[4,5-c]quinolin-8-yl)phenyl)-3-(2-(dimethylamino)ethyl)urea], the IC50 in data set [1] came out at 8940 nM; against human ATM it was 3 nM.
For `COCCn1c(-c2ccco2)nc2cnc3ccc(-c4ccc(OCCCN(C)C)nc4)cc3c21` [Ex. 6, 3-((5-(2-(Furan-2-yl)-1-(2-methoxyethyl)-1H-imidazo[4,5-c]quinolin-8-yl)pyridin-2-yl)oxy)-N,N-dimethylpropan-1-amine dimesylate] the same measures were 3420 nM and less than 1 nM.
In the same order, the values of `CN(C)CCNC(=O)Nc1ccc(-c2ccc3ncc4c(c3c2)n(C2CCOCC2)c(=O)n4C)cc1` [Ex. 10, 1-(2-(Dimethylamino)ethyl)-3-(4-(3-methyl-2-oxo-1-(tetrahydro-2H-pyran-4-yl)-2,3-dihydro-1H-imidazo[4,5-c]quinolin-8-yl)phenyl)urea] are 1450 nM and less than 1 nM.
In the case of `COCCn1c(=O)n(C)c2cnc3ccc(-c4ccc(NC(=O)NCCN(C)C)c(F)c4)cc3c21` [Ex. 28, 1-(2-(Dimethylamino)ethyl)-3-(2-fluoro-4-(1-(2-methoxyethyl)-3-methyl-2-oxo-2,3-dihydro-1H-imidazo[4,5-c]quinolin-8-yl)phenyl)urea], the IC50 was 2000 nM in data set [1], less than 1 nM against human ATM and 1 nM in data set [2].
As to `CN1CCN(C(=O)Nc2ccc(-c3ccc4ncc5c(c4c3)n(C3CCOCC3)c(=O)n5C)cn2)CC1` [Ex. 8, 4-Methyl-N-(5-(3-methyl-2-oxo-1-(tetrahydro-2H-pyran-4-yl)-2,3-dihydro-1H-imidazo[4,5-c]quinolin-8-yl)pyridin-2-yl)piperazine-1-carboxamide], the half-maximal inhibitory concentration (IC50) is 410 nM in data set [1] and 2 nM on human ATM.
For `COCCn1c(=O)n(C)c2cnc3ccc(-c4ccc(NC(=O)NCCN(C)C)cc4)cc3c21` [Ex. 11, 1-(2-(Dimethylamino)ethyl)-3-(4-(1-(2-methoxyethyl)-3-methyl-2-oxo-2,3-dihydro-1H-imidazo[4,5-c]quinolin-8-yl)phenyl)urea] the same measures were 4000 nM and less than 1 nM.
Turning to `COCCn1cnc2cnc3ccc(-c4ccc(OCCCN(C)C)nc4)cc3c21` [Ex. 5, 3-((5-(1-(2-Methoxyethyl)-1H-imidazo[4,5-c]quinolin-8-yl)pyridin-2-yl)oxy)-N,N-dimethylpropan-1-amine], the IC50 in data set [1] is 3400 nM; against human ATM it was 3.3 nM.
In the same order, the values of `COCCn1c(=O)n(C)c2cnc3ccc(-c4ccc(OCCCN(C)C)nc4)cc3c21` [Ex. 9, 8-(6-(3-(Dimethylamino)propoxy)43uinolin-3-yl)-1-(2-methoxyethyl)-3-methyl-1,3-dihydro-2H-imidazo[4,5-c]43uinoline-2-one] are 1580 nM and less than 1 nM.
In the case of `COCCn1c(=O)n(C)c2cnc3ccc(-c4ccc(NC(=O)NCCN(C)C)cc4F)cc3c21` [Ex. 27, 1-(2-(Dimethylamino)ethyl)-3-(3-fluoro-4-(1-(2-methoxyethyl)-3-methyl-2-oxo-2,3-dihydro-1H-imidazo[4,5-c]quinolin-8-yl)phenyl)urea], the figures for the IC50 (in data set [1]; at human ATM; in data set [2]) were 4790 nM, less than 1 nM and 1 nM, respectively.
`CN(C)CCCOc1ccc(-c2ccc3ncc4nc(-c5ccco5)n(C5CCOCC5)c4c3c2)cn1` [Ex. 3, 3-((5-(2-(Furan-2-yl)-1-(tetrahydro-2H-pyran-4-yl)-1H-imidazo[4,5-c]quinolin-8-yl)pyridin-2-yl)oxy)-N,N-dimethylpropan-1-amine]: the concentration for half-maximal inhibition (IC50) in data set [1] is 7500 nM; against human ATM it was less than 1 nM.
In the same order, the values of `COCCn1c(=O)n(C)c2cnc3ccc(-c4ccc(NC(=O)NC(C)CN(C)C)cc4)cc3c21` (racemic) [Ex. 52, (RS)-1-(1-(Dimethylamino)propan-2-yl)-3-(4-(1-(2-methoxyethyl)-3-methyl-2-oxo-2,3-dihydro-1H-imidazo[4,5-c]quinolin-8-yl)phenyl)urea] are 5470 nM and less than 1 nM.
Turning to `CN(C)CCCOc1ccc(-c2ccc3ncc4ncn(C5CCOCC5)c4c3c2)cn1` [Ex. 1, N,N-Dimethyl-3-((5-(1-(tetrahydro-2H-pyran-4-yl)-1H-imidazo[4,5-c]quinolin-8-yl)pyridin-2-yl)oxy)propan-1-amine], the IC50 was determined as 6900 nM in data set [1] and 2.3 nM at human ATM.

For the origin of these results see patent US20230348462A1, “IMIDAZO[4,5-C]QUINOLINE COMPOUNDS AND THEIR USE AS ATM KINASE INHIBITORS” (Deutsches Krebsforschungszentrum, priority 2020, published 2023).
